US11654143B2, “Therapeutic combinations of a BTK inhibitor, a PI3K inhibitor, a JAK-2 inhibitor, and/or a BCL-2 inhibitor” (Acerta Pharma B.V., priority 2014, dated 2023)
pEC50, pIC50: −log10 of the molar value.

How the values were obtained:
[1] = system: human platelet-mediated thrombosis; assay: in vivo human thrombus formation in the VWF HA1 mice model; conditions: human platelets preincubated with BTK inhibitor, laser-induced injury
[2] = system: GPVI platelet aggregation; assay: GPVI platelet aggregation studies; format: cell-based; conditions: FIG. 122
[3] = system: canine B cell lymphoma; assay: veterinary clinical trial in companion dogs with B cell lymphoma; format: in vivo
Method: Enrollment has completed for both arms.
Intra-subject dose escalation was allowed. Six of the 11 dogs that initiated at 2.5 or 5 mg/kg once daily were escalated and completed the study with dosages of 10 mg/kg twice daily. Among all the dose cohorts, 8 dogs had shrinkage of target lesions >20%; the best tumor responses were between 45-49% reduction in the sum of target lesions in two dogs. […] CR were defined as disappearance of all evidence of disease per evaluator judgment, and absence of new lesions. Vali, et al., Vet. Comp. Oncol. 2010, 8, 28-37.
Of these, 7 dogs had shrinkage of target lesions >20%, providing evidence of biological activity for the combination; four of these dogs achieved a PR. […] The initial reductions in the sum of target lesions continued to deepen during the course of therapy in 7 of the 10 dogs.

[4] = system: hepatocytes; assay: in vitro metabolism in hepatocytes with 14C-labeled drug; format: in vitro ADME, mouse, rat, dog, rabbit, monkey, and human
[5] = system: CXCL12; assay: CXCL12 levels in treated patients; format: in vivo, human; conditions: FIG. 145
[6] = cardiovascular function study in awake telemeterized beagle dogs; conditions: male beagle dogs, single doses through 30 mg/kg
[7] = system: expression of activation markers CD69 and CD86; assay: in vivo potency: mice gavaged, BCR stimulated with IgM, CD69 and CD86 monitored by flow cytometry; conditions: gavage, 3 h post-dose, versus ibrutinib, FIG. 124
Method: Mice were gavaged at increasing drug concentration and sacrificed at one time point (3 h post-dose). BCR is stimulated with IgM and the expression of activation markers CD69 and CD86 are monitored by flow cytometry to determine EC50's.

[8] = biological target: EGFR (Homo sapiens, UniProt P00533); assay: EGF-induced EGFR phosphorylation in A431 cells (phosphoflow); conditions: 10 μM, A431 human epidermoid cancer cell line
[9] = system: human platelets; assay: GPVI (convulxin-induced) platelet aggregation; format: cell-based; conditions: CVX-induced
Method: GPVI platelet aggregation was measured for Formula (XVIII) and Formula (XX-A) (ibrutinib). Blood was obtained from untreated humans, and platelets were purified from […] by centrifugation. Cells were resuspended to a final concentration of 350,000/μL in buffer containing 145 mmol/L NaCl, 10 mmol/L HEPES, 0.5 mmol/L Na2HPO4, 5 mmol/L KCl, 2 mmol/L MgCl2, 1 mmol/L CaCl2), and 0.1% glucose, at pH 7.4. Stock solutions of […] were prepared on the day of experimentation and added to platelet suspensions 5 minutes (37° C., 1200 rpm) before the induction of aggregation. Aggregation was assessed with a Chronolog Lumi-Aggregometer (model 540 VS; Chronolog, Havertown, Pa.) and permitted to proceed for 6 minutes after the addition of agonist. The results are reported as maximum percent change in light transmittance from baseline with platelet buffer used as a reference.
In FIG. 123, the results of CVX-induced (250 ng/mL) human platelet aggregation results before and 15 minutes after administration of the BTK inhibitors to 6 healthy individuals are shown.

[10] = preliminary brain PK experiments, oral gavage; format: in vivo, Sprague-Dawley rats; conditions: 5 or 30 mg/kg/day oral
Source text: Two vehicle treated rats were sacrificed on each sampling day for comparison.

[11] = system: CCL2; assay: CCL2 levels in treated patients; format: in vivo, human; conditions: FIG. 146
[12] = system: CXCL12; assay: plasma chemokines in treated CLL patients; format: in vivo, human
[13] = system: CYP enzymes; assay: nonclinical CYP interaction studies; format: in vitro ADME
[14] = glutathione binding and depletion in vitro; format: in vitro ADME
[15] = study of respiratory function; conditions: rats, doses through 300 mg/kg
[16] = system: CLL; assay: apoptosis in treated CLL patients; format: in vivo, human; conditions: FIG. 144
[17] = biological target: CYP3A4 (Homo sapiens, UniProt P08684); assay: loss of parent drug as catalyzed by CYPs; format: in vitro ADME; conditions: in vitro loss of parent drug
[18] = system: CCL2; assay: plasma chemokines in treated CLL patients; format: in vivo, human
[19] = system: B cell receptor; assay: whole blood anti-IgD stimulated CD69 on CD19+ B cells; format: cell-based; conditions: whole blood from four healthy donors, 2 hours compound, anti-human IgD 18 hours
Method: Blood from four healthy donors was incubated for 2 hours with the compounds shown over a concentration range, and then stimulated with anti-human IgD [10 μg/mL] for 18 hours. The mean fluorescent intensity (MFI) of CD69 (and CD86, data not shown) on gated CD19+ B cells was measured by flow cytometry.

[20] = system: CLL; assay: clinical study in CLL (ALC and SPD); format: in vivo, human; conditions: CLL patients, FIG. 125
Source text: J. Med. 2013, 369, 32-42.

[21] = system: 80 known pharmacologic targets such as G-protein-coupled receptors, nuclear receptors, proteases, and ion channels; assay: binding assays with 80 known pharmacologic targets; conditions: screened at 10 μM
[22] = system: CLL; conditions: human, in vivo
Source text: (§1) This study is a multicenter, open-label, nonrandomized, sequential group, dose escalation study. The following dose cohorts will be evaluated:
(§2) Each cohort will be enrolled sequentially with 6 subjects per cohort. If ≤1 dose-limiting toxicity (DLT) is observed in the cohort during Cycle 1, escalation to the next cohort will proceed. Subjects may be enrolled in the next cohort if 4 of the 6 subjects enrolled in the cohort completed Cycle 1 without experiencing a DLT, while the remaining 2 subjects are completing evaluation. If ≥2 DLTs are observed during Cycle 1, dosing at that dose and higher will be suspended and the MTD will be established as the previous cohort. […] Dose escalation will end when either the MTD is achieved or at 3 dose levels above full BTK occupancy, whichever occurs first. […] Should escalation to Cohort 6 be necessary, the dose will be determined based on the aggregate data from Cohorts 1 to 5, which includes safety, efficacy, and PK/PD results. The dose for Cohort 6 will not exceed 900 mg/day.
(§3) Dose-limiting toxicity is defined as any of the following events (if not related to disease progression): (1) any Grade ≥3 non-hematologic toxicity (except alopecia) persisting despite receipt of a single course of standard outpatient symptomatic therapy (e.g., Grade 3 diarrhea that responds to a single, therapeutic dose of Imodium® would not be considered a DLT); (2) grade ≥3 prolongation of the corrected QT interval (QTc), as determined by a central ECG laboratory overread; (3) grade 4 neutropenia (absolute neutrophil count [ANC]<500/μL) lasting >7 days after discontinuation of therapy without growth factors or lasting >5 days after discontinuation of therapy while on growth factors (i.e., Grade 4 neutropenia not lasting as long as specified will not be considered a DLT), (4) grade 4 thrombocytopenia (platelet count <20,000/μL) lasting >7 days after discontinuation of therapy or requiring transfusion (i.e., Grade 4 thrombocytopenia not lasting as long as specified will not be considered a DLT), and (5) dosing delay due to toxicity for >7 consecutive days.
(§4) The study scheme is a sequential cohort escalation. Each cohort consists of six subjects. The sample size of the study is 24 to 36 subjects, depending on dose escalation into subsequent cohorts. […] The dose level for Cohort 6 will be determined based on the safety and efficacy of Cohorts 1 to 5, and will not exceed 900 mg/day. Escalation will end with either the MTD cohort or three levels above full BTK occupancy, whichever is observed first. An additional arm of the study will explore 100 mg BID dosing.
(§5) The route of administration is oral (per os, or PO). The dose regimen is once daily or twice daily, as defined by the cohort, on an empty stomach (defined as no food 2 hours before and 30 minutes after dosing).

[23] = system: CLL; assay: clinical study of Formula (XVIII) in relapsed/refractory CLL
Source text: as §1, §2, §3, §4, §5

[24] = preliminary evaluations of metabolism in plasma, bile, and urine; format: in vivo; conditions: rats, dogs, and monkeys
[25] = system: NSCLC (KrasLA2) tumors; assay: genetic tumor model of NSCLC (KrasLA2); format: in vivo, mice; conditions: 15 mg/kg
Source text: The model is designed to have sporadic expression in single cells of G12D mutant Kras off its own promoter triggered by spontaneous intrachromosomal recombination. Johnson, et al. Nature 2001, 410, 1111-16. While the mutant Kras protein is expressed in a few cells in all tissues, tumor development is seen only in the lung at high penetrance.

[26] = biological target: T1, BTK (Mus musculus, UniProt P35991); assay: molecular probe assay, BTK occupancy in MDSCs from tumor bearing PDA mice; format: in vivo; conditions: 15 mg/kg BID, Day 8, 4 hours post dose, granulocytic and monocytic MDSC (N=5)
T1 construct: MDSCs were purified from tumor bearing PDA mice; from tissue; host or cells: granulocytic and monocytic MDSCs purified from tumour-bearing PDA mice
Source text: A molecular probe assay was used to calculate the percent irreversible occupancy of total BTK.

[27] = functional observation battery (GLP safety pharmacology); conditions: rats, doses through 300 mg/kg
[28] = biological target: BTK (Homo sapiens, UniProt Q06187); assay: BTK target occupancy in relapsed/refractory CLL patients; conditions: at lower dosage versus ibrutinib, FIG. 131
[29] = within the tested dose range; cited from earlier work

Sequence of CYP3A4 (P08684 whole entry): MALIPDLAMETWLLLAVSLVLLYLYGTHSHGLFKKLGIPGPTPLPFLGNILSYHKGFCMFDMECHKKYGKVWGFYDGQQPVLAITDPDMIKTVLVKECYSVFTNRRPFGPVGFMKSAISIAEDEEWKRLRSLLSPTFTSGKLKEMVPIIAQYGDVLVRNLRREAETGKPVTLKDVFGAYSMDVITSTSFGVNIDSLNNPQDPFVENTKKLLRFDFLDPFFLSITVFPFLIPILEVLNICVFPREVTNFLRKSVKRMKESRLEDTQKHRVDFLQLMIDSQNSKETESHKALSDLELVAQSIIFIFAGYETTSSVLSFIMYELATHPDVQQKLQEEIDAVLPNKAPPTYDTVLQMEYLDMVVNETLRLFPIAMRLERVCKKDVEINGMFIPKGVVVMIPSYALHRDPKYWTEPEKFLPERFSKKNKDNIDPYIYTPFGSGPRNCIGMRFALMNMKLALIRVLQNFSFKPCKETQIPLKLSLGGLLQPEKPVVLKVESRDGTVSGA
T1 sequence (P35991 whole entry): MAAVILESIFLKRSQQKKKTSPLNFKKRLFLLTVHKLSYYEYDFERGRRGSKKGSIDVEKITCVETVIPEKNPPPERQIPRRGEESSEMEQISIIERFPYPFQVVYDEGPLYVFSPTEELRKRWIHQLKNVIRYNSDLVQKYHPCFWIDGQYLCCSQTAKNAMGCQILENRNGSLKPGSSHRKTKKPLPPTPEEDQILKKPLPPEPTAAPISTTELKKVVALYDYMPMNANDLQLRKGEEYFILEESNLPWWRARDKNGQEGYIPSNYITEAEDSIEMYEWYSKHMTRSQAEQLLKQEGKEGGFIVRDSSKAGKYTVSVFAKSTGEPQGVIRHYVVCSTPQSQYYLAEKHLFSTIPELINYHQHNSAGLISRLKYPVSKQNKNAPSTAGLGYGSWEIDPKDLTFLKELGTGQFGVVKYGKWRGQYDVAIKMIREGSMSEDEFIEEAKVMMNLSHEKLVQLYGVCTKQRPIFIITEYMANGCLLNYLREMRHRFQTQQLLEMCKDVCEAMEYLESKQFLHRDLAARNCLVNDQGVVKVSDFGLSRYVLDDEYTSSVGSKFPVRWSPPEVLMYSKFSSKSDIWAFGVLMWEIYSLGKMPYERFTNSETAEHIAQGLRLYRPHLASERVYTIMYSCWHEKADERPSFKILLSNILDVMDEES
Sequence of BTK (Homo sapiens, UniProt Q06187) (Q06187 whole entry): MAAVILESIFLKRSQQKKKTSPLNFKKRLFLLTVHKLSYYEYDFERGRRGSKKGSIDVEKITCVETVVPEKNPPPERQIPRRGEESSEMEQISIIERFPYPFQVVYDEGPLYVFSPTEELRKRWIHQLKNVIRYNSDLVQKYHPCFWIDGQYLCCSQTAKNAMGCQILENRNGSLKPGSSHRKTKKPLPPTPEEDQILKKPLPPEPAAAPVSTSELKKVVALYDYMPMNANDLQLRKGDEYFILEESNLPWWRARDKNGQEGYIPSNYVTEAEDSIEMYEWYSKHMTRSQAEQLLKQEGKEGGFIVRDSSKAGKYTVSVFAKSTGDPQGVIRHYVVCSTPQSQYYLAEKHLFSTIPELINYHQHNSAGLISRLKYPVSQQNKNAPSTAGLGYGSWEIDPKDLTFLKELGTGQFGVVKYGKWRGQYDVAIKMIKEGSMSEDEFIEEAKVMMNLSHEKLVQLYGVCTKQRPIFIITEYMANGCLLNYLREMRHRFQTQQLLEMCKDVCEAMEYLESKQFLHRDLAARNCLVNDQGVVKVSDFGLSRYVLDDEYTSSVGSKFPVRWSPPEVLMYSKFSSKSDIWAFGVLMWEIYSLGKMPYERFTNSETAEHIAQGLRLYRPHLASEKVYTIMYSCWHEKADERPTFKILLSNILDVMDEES
Sequence of EGFR (P00533 25-1210): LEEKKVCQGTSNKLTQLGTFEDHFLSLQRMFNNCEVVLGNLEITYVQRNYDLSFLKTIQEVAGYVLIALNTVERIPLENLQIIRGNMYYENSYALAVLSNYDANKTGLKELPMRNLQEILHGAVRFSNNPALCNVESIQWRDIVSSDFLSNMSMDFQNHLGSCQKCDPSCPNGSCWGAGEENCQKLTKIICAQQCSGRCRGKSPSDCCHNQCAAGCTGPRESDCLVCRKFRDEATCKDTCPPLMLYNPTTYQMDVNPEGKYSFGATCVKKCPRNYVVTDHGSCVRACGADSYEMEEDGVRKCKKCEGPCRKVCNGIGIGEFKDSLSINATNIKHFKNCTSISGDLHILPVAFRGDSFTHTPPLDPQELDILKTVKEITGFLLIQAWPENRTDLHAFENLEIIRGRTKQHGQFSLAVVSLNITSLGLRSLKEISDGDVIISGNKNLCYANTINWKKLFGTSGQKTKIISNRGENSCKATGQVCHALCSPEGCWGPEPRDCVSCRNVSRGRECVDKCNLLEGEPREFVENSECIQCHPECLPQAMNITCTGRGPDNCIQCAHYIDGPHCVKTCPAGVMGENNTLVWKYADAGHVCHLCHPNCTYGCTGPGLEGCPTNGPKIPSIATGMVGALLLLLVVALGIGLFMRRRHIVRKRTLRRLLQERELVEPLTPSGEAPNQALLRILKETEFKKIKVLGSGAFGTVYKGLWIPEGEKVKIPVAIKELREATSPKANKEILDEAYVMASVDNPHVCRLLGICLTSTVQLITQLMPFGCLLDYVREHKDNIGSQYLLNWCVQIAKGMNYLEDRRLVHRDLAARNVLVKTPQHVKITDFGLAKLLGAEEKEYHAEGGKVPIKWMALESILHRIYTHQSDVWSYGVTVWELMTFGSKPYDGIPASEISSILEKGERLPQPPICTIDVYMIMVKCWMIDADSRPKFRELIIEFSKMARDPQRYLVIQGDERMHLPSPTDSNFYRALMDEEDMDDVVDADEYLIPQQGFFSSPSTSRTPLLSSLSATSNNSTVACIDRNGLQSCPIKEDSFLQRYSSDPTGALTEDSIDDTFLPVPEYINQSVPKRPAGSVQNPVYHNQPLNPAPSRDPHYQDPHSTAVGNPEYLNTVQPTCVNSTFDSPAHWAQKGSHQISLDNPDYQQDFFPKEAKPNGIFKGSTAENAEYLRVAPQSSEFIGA

SMILES: C=CC(=O)Nc1cccc(Nc2nc(Nc3ccc(OCCOC)cc3)ncc2F)c1 [Formula XXVII (CC-292), N-(3-((5-fluoro-2-((4-(2-methoxyethoxy)phenyl)amino)pyrimidin-4-yl)amino)phenyl)acrylamide, reference compound]
- effect on human platelet-mediated thrombus formation [1]: effect similar to Formula (XX-A) (ibrutinib)

SMILES: C=CC(=O)N1CCC[C@@H](n2nc(-c3ccc(Oc4ccccc4)cc3)c3c(N)ncnc32)C1 [Formula (XX-A), reference compound]
- pIC50 ([2]; Platelet): 6.89

SMILES: CC#CC(=O)N1CCC[C@H]1c1nc(-c2ccc(C(=O)Nc3ccccn3)cc2)c2c(N)nccn12 [Formula (XVIII), (S)-4-(8-amino-3-(1-(but-2-ynoyl)pyrrolidin-2-yl)imidazo[1,5-a]pyrazin-1-yl)-N-(pyridin-2-yl)benzamide]
- complete responses (CR) ([3]; Arm 1: 21 dogs, Arm 2: 10 dogs): not observed
- dogs with shrinkage of target lesions >20% ([3]; Arm 1: 21 dogs, Arm 2: 10 dogs): 8 dogs
- Median time to best response ([3]; dog, in vivo): 7 days
- best tumor responses, reduction in the sum of target lesions ([3]; dog, in vivo): 45-49%
- unique human metabolite ([4]; hepatocytes): No unique human metabolite
- metabolites in hepatocytes ([4]; mouse, rat, dog, rabbit, monkey, and human hepatocytes): two mono-oxidized metabolites and a glutathione conjugate
- CXCL12 levels [5]: decrease
- effect on human platelet-mediated thrombus formation [1]: no significant effect
- body temperature, cardiovascular, or ECG (including QT interval) parameters [6]: no meaningful changes
- in vivo potency, inhibition of expression of activation markers CD69 and CD86 [7]: more potent at inhibiting expression of activation makers than ibrutinib
- inhibition of in vitro EGFR phosphorylation [8]: no inhibition
- inhibition of GPVI platelet aggregation [9]: does not
- levels in the brain and CSF samples [10]: low but detectable levels
- CCL2 levels [11]: decrease
- plasma CXCL12 levels [12]: significant decrease
- potential for clinical drug-drug interactions via CYP enzymes [13]: very unlikely to cause clinical drug-drug interactions
- glutathione binding and depletion [14]: binds to glutathione but does not deplete glutathione
- respiratory function [15]: no treatment-related adverse effects
- apoptosis [16]: increased apoptosis
- CYP responsible for metabolism [17]: metabolized by CYP3A4
- plasma CCL2 levels [18]: significant decrease
- pEC50 ([19]; B-cell): 8.09
- absolute lymphocyte count (ALC) ([20]; relative to ibrutinib (Byrd et al. 2013)): much smaller relative increase and much faster decrease
- sum of the product of greatest diameters (SPD) ([20]; versus ibrutinib): decreases more rapidly
- activity in binding assays with 80 known pharmacologic targets [21]: significant activity only against the A3 adenosine receptor
- MTD [22]: not reached
- PD ([23]; 100 mg BID (N = 3)): 0 (0) n (%)
- PR ([23]; 100 mg BID (N = 3)): 3 (100) n (%)
- PR + L ([23]; 100 mg BID (N = 3)): 0 (0) n (%)
- PD ([23]; 100 mg QD (N = 8)): 0 (0) n (%)
- PR ([23]; 100 mg QD (N = 8)): 7 (88) n (%)
- PR + L ([23]; 100 mg QD (N = 8)): 0 (0) n (%)
- PD ([23]; 175 mg QD (N = 8)): 0 (0) n (%)
- PR ([23]; 175 mg QD (N = 8)): 5 (63) n (%)
- PR + L ([23]; 175 mg QD (N = 8)): 3 (37) n (%)
- PD ([23]; 250 mg QD (N = 7)): 0 (0) n (%)
- PR ([23]; 250 mg QD (N = 7)): 5 (71) n (%)
- PR + L ([23]; 250 mg QD (N = 7)): 2 (29) n (%)
- PD ([23]; 400 mg QD (N = 5)): 0 (0) n (%)
- PR ([23]; 400 mg QD (N = 5)): 2 (40) n (%)
- PR + L ([23]; 400 mg QD (N = 5)): 2 (40) n (%)
- PD ([23]; All Cohorts (N = 31)): 0 (0) n (%)
- PR ([23]; All Cohorts (N = 31)): 22 (71) n (%)
- PR + L ([23]; All Cohorts (N = 31)): 7 (23) n (%)
- treatment time at which median % change in SPD achieved the same status ([23]; CLL patients, present study): 7 months
- Headache (treatment-related adverse event) ([23]; Grade 1/2, All (N = 44)): 7 (16) n (%)
- Diarrhea (treatment-related adverse event) ([23]; Grade 1, All (N = 44)): 4 (9) n (%)
- Increased tendency to bruise (treatment-related adverse event) ([23]; Grade 1, All (N = 44)): 6 (14) n (%)
- Petechiae (treatment-related adverse event) ([23]; Grade 1, All (N = 44)): 3 (7) n (%)
- grade of AEs observed ([23]; human, in vivo): only grade 1 AEs
- lymphocytosis ([23]; human, in vivo): A lack of lymphocytosis
- dose-limiting toxicities (DLTs) ([23]; relapsed/refractory CLL): No DLTs
- treatment-related serious adverse events (SAEs) ([23]; relapsed/refractory CLL): No treatment-related serious adverse events
- progression in patients with the 17p deletion ([23]; to date): no 17p patients have progressed
- metabolic processes in plasma, bile, and urine [24]: oxidation, glutathione binding, and hydrolysis
- number of tumors [25]: fewer overall tumors
- tumor volumes versus vehicle [25]: significant decrease
- irreversible occupancy of total BTK in MDSCs [26]: Complete BTK occupancy
- neurobehavioral effects or body temperature, functional observation battery [27]: no adverse effects
- BTK target occupancy [28]: improved BTK target occupancy

SMILES: C=CC(=O)Nc1cccc(Nc2nc(Nc3ccc(OCCOC)cc3)ncc2F)c1 [CC-292]
- pEC50 [19]: 6.92

SMILES: CC#CC(=O)N1CCC[C@H]1c1nc(-c2ccc(C(=O)Nc3ccccn3)cc2)c2c(N)nccn12 [Formula XVIII]
- pIC50 [2]: 5.94

SMILES: C=CC(=O)N1CCC[C@@H](n2nc(-c3ccc(Oc4ccccc4)cc3)c3c(N)ncnc32)C1 [ibrutinib]
- pEC50 ([19]; B-cell): 8.21
- maximum tolerated dose (MTD) [29]: No maximum tolerated dose
